Measurements as given in ChEMBL document CHEMBL5724914, “Linking interpersonal differences in gut microbiota composition and drug biotransformation activity” (2024).

conditions: human gut metagenome, 24 h, 2 µM
Further: call rule not given here.

Compound	Bacterial Biotransformation
O=P1(N(CCCl)CCCl)NCCCO1 (stereo not given) [CYCLOPHOSPHAMIDE ANHYDROUS]	Compound NOT metabolized
Br.COc1ccc2c(c1)[C@]13CCCC[C@@H]1[C@H](C2)N(C)CC3.O [DEXTROMETHORPHAN HYDROBROMIDE]	Compound NOT metabolized
CC(=O)Nc1ccc(OC(C)=O)cc1 [DIACETAMATE]	Compound metabolized

assay: (§1) The drug is tested on Z-030 corresponding to mouse gut metagenome with ENA study accession number: PRJEB37062 and ENA sample accession number: ERS12561829 for biotransformation under anaerobic condition. The drug concentrations were measured over 9 timepoints collected between 0 and 24 hours of incubation by liquid-chromatography-coupled mass spectrometry (LC–MS); conditions: 2 µM

Compound	Bacterial Biotransformation
O=P1(N(CCCl)CCCl)NCCCO1 (stereo not given) [CYCLOPHOSPHAMIDE ANHYDROUS]	Compound NOT metabolized
Br.COc1ccc2c(c1)[C@]13CCCC[C@@H]1[C@H](C2)N(C)CC3.O [DEXTROMETHORPHAN HYDROBROMIDE]	Compound NOT metabolized
CC(=O)Nc1ccc(OC(C)=O)cc1 [DIACETAMATE]	Compound metabolized

assay: as §1, with “Z-008” for “Z-030”, “to” for “to mouse gut”, “ERS12561808” for “ERS12561829”; conditions: 2 µM

Compound	Bacterial Biotransformation
O=P1(N(CCCl)CCCl)NCCCO1 (stereo not given) [CYCLOPHOSPHAMIDE ANHYDROUS]	Compound NOT metabolized
Br.COc1ccc2c(c1)[C@]13CCCC[C@@H]1[C@H](C2)N(C)CC3.O [DEXTROMETHORPHAN HYDROBROMIDE]	Compound NOT metabolized
CC(=O)Nc1ccc(OC(C)=O)cc1 [DIACETAMATE]	Compound metabolized

assay: as §1, with “WLS-220” for “Z-030”, “human” for “mouse”, “ERS12561769” for “ERS12561829”; conditions: 2 µM

Compound	Bacterial Biotransformation
O=P1(N(CCCl)CCCl)NCCCO1 (stereo not given) [CYCLOPHOSPHAMIDE ANHYDROUS]	Compound metabolized
Br.COc1ccc2c(c1)[C@]13CCCC[C@@H]1[C@H](C2)N(C)CC3.O [DEXTROMETHORPHAN HYDROBROMIDE]	Compound metabolized
CC(=O)Nc1ccc(OC(C)=O)cc1 [DIACETAMATE]	Compound metabolized

conditions: human gut metagenome, 24 h, 2 µM; remark: another data set of the same source

Compound	Bacterial Biotransformation
O=P1(N(CCCl)CCCl)NCCCO1 (stereo not given) [CYCLOPHOSPHAMIDE ANHYDROUS]	Compound metabolized
Br.COc1ccc2c(c1)[C@]13CCCC[C@@H]1[C@H](C2)N(C)CC3.O [DEXTROMETHORPHAN HYDROBROMIDE]	Compound NOT metabolized
CC(=O)Nc1ccc(OC(C)=O)cc1 [DIACETAMATE]	Compound metabolized

assay: as §1, with “WLS-310” for “Z-030”, “human” for “mouse”, “ERS12561785” for “ERS12561829”; conditions: 2 µM

Compound	Bacterial Biotransformation
O=P1(N(CCCl)CCCl)NCCCO1 (stereo not given) [CYCLOPHOSPHAMIDE ANHYDROUS]	Compound metabolized
Br.COc1ccc2c(c1)[C@]13CCCC[C@@H]1[C@H](C2)N(C)CC3.O [DEXTROMETHORPHAN HYDROBROMIDE]	Compound metabolized
CC(=O)Nc1ccc(OC(C)=O)cc1 [DIACETAMATE]	Compound metabolized

conditions: human gut metagenome, 24 h, 2 µM; remark: another data set of the same source

Compound	Bacterial Biotransformation
O=P1(N(CCCl)CCCl)NCCCO1 (stereo not given) [CYCLOPHOSPHAMIDE ANHYDROUS]	Compound metabolized
Br.COc1ccc2c(c1)[C@]13CCCC[C@@H]1[C@H](C2)N(C)CC3.O [DEXTROMETHORPHAN HYDROBROMIDE]	Compound metabolized
CC(=O)Nc1ccc(OC(C)=O)cc1 [DIACETAMATE]	Compound metabolized

conditions: human gut metagenome, 24 h, 2 µM; remark: another data set of the same source

Compound	Bacterial Biotransformation
O=P1(N(CCCl)CCCl)NCCCO1 (stereo not given) [CYCLOPHOSPHAMIDE ANHYDROUS]	Compound metabolized
Br.COc1ccc2c(c1)[C@]13CCCC[C@@H]1[C@H](C2)N(C)CC3.O [DEXTROMETHORPHAN HYDROBROMIDE]	Compound metabolized
CC(=O)Nc1ccc(OC(C)=O)cc1 [DIACETAMATE]	Compound metabolized

conditions: human gut metagenome, 24 h, 2 µM; remark: another data set of the same source

Compound	Bacterial Biotransformation
O=P1(N(CCCl)CCCl)NCCCO1 (stereo not given) [CYCLOPHOSPHAMIDE ANHYDROUS]	Compound metabolized
Br.COc1ccc2c(c1)[C@]13CCCC[C@@H]1[C@H](C2)N(C)CC3.O [DEXTROMETHORPHAN HYDROBROMIDE]	Compound metabolized
CC(=O)Nc1ccc(OC(C)=O)cc1 [DIACETAMATE]	Compound metabolized

assay: as §1, with “Z-020” for “Z-030”, “rabbit” for “mouse”, “ERS12561819” for “ERS12561829”; conditions: 2 µM

Compound	Bacterial Biotransformation
O=P1(N(CCCl)CCCl)NCCCO1 (stereo not given) [CYCLOPHOSPHAMIDE ANHYDROUS]	Compound NOT metabolized
Br.COc1ccc2c(c1)[C@]13CCCC[C@@H]1[C@H](C2)N(C)CC3.O [DEXTROMETHORPHAN HYDROBROMIDE]	Compound metabolized
CC(=O)Nc1ccc(OC(C)=O)cc1 [DIACETAMATE]	Compound metabolized

conditions: human gut metagenome, 24 h, 2 µM; remark: another data set of the same source

Compound	Bacterial Biotransformation
O=P1(N(CCCl)CCCl)NCCCO1 (stereo not given) [CYCLOPHOSPHAMIDE ANHYDROUS]	Compound NOT metabolized
Br.COc1ccc2c(c1)[C@]13CCCC[C@@H]1[C@H](C2)N(C)CC3.O [DEXTROMETHORPHAN HYDROBROMIDE]	Compound NOT metabolized
CC(=O)Nc1ccc(OC(C)=O)cc1 [DIACETAMATE]	Compound metabolized

conditions: human gut metagenome, 24 h, 2 µM; remark: another data set of the same source

Compound	Bacterial Biotransformation
O=P1(N(CCCl)CCCl)NCCCO1 (stereo not given) [CYCLOPHOSPHAMIDE ANHYDROUS]	Compound metabolized
Br.COc1ccc2c(c1)[C@]13CCCC[C@@H]1[C@H](C2)N(C)CC3.O [DEXTROMETHORPHAN HYDROBROMIDE]	Compound metabolized
CC(=O)Nc1ccc(OC(C)=O)cc1 [DIACETAMATE]	Compound metabolized

conditions: human gut metagenome, 24 h, 2 µM; remark: another data set of the same source

Compound	Bacterial Biotransformation
O=P1(N(CCCl)CCCl)NCCCO1 (stereo not given) [CYCLOPHOSPHAMIDE ANHYDROUS]	Compound metabolized
Br.COc1ccc2c(c1)[C@]13CCCC[C@@H]1[C@H](C2)N(C)CC3.O [DEXTROMETHORPHAN HYDROBROMIDE]	Compound metabolized
CC(=O)Nc1ccc(OC(C)=O)cc1 [DIACETAMATE]	Compound metabolized

conditions: human gut metagenome, 24 h, 2 µM; remark: another data set of the same source

Compound	Bacterial Biotransformation
O=P1(N(CCCl)CCCl)NCCCO1 (stereo not given) [CYCLOPHOSPHAMIDE ANHYDROUS]	Compound metabolized
Br.COc1ccc2c(c1)[C@]13CCCC[C@@H]1[C@H](C2)N(C)CC3.O [DEXTROMETHORPHAN HYDROBROMIDE]	Compound metabolized
CC(=O)Nc1ccc(OC(C)=O)cc1 [DIACETAMATE]	Compound metabolized

conditions: human gut metagenome, 24 h, 2 µM; remark: another data set of the same source

Compound	Bacterial Biotransformation
O=P1(N(CCCl)CCCl)NCCCO1 (stereo not given) [CYCLOPHOSPHAMIDE ANHYDROUS]	Compound metabolized
Br.COc1ccc2c(c1)[C@]13CCCC[C@@H]1[C@H](C2)N(C)CC3.O [DEXTROMETHORPHAN HYDROBROMIDE]	Compound metabolized
CC(=O)Nc1ccc(OC(C)=O)cc1 [DIACETAMATE]	Compound metabolized

assay: as §1, with “WLS-077” for “Z-030”, “human” for “mouse”, “ERS12561750” for “ERS12561829”; conditions: 2 µM

Compound	Bacterial Biotransformation
O=P1(N(CCCl)CCCl)NCCCO1 (stereo not given) [CYCLOPHOSPHAMIDE ANHYDROUS]	Compound NOT metabolized
Br.COc1ccc2c(c1)[C@]13CCCC[C@@H]1[C@H](C2)N(C)CC3.O [DEXTROMETHORPHAN HYDROBROMIDE]	Compound metabolized
CC(=O)Nc1ccc(OC(C)=O)cc1 [DIACETAMATE]	Compound metabolized

assay: as §1, with “Z-003” for “Z-030”, “pig” for “mouse”, “ERS12561803” for “ERS12561829”; conditions: 2 µM

Compound	Bacterial Biotransformation
O=P1(N(CCCl)CCCl)NCCCO1 (stereo not given) [CYCLOPHOSPHAMIDE ANHYDROUS]	Compound NOT metabolized
Br.COc1ccc2c(c1)[C@]13CCCC[C@@H]1[C@H](C2)N(C)CC3.O [DEXTROMETHORPHAN HYDROBROMIDE]	Compound metabolized
CC(=O)Nc1ccc(OC(C)=O)cc1 [DIACETAMATE]	Compound metabolized

assay: as §1, with “WLS-007” for “Z-030”, “human” for “mouse”, “ERS12561742” for “ERS12561829”; conditions: 2 µM

Compound	Bacterial Biotransformation
O=P1(N(CCCl)CCCl)NCCCO1 (stereo not given) [CYCLOPHOSPHAMIDE ANHYDROUS]	Compound NOT metabolized
Br.COc1ccc2c(c1)[C@]13CCCC[C@@H]1[C@H](C2)N(C)CC3.O [DEXTROMETHORPHAN HYDROBROMIDE]	Compound NOT metabolized
CC(=O)Nc1ccc(OC(C)=O)cc1 [DIACETAMATE]	Compound metabolized

assay: as §1, with “Z-026” for “Z-030”, “to” for “to mouse gut”, “ERS12561825” for “ERS12561829”; conditions: 2 µM

Compound	Bacterial Biotransformation
O=P1(N(CCCl)CCCl)NCCCO1 (stereo not given) [CYCLOPHOSPHAMIDE ANHYDROUS]	Compound NOT metabolized
Br.COc1ccc2c(c1)[C@]13CCCC[C@@H]1[C@H](C2)N(C)CC3.O [DEXTROMETHORPHAN HYDROBROMIDE]	Compound NOT metabolized
CC(=O)Nc1ccc(OC(C)=O)cc1 [DIACETAMATE]	Compound metabolized

conditions: human gut metagenome, 24 h, 2 µM; remark: another data set of the same source

Compound	Bacterial Biotransformation
O=P1(N(CCCl)CCCl)NCCCO1 (stereo not given) [CYCLOPHOSPHAMIDE ANHYDROUS]	Compound metabolized
Br.COc1ccc2c(c1)[C@]13CCCC[C@@H]1[C@H](C2)N(C)CC3.O [DEXTROMETHORPHAN HYDROBROMIDE]	Compound metabolized
CC(=O)Nc1ccc(OC(C)=O)cc1 [DIACETAMATE]	Compound metabolized
